# Laboratory results taken from patent US8906952B2, “Indole derivative or pharmaceutically acceptable salt thereof, preparation method thereof, and pharmaceutical composition for preventing or treating metabolic diseases containing same as active ingredient” (Korea Research Institute of Bioscience and Biotechnology, priority 2011, dated 2014).
# Like-named read-outs stand apart in the source and are kept apart here.
# How the values were obtained:
# [1] = target: T1, DGAT-1 (rat liver) (Rattus norvegicus, UniProt Q9ERM3); assay: DGAT enzyme inhibition test, rat liver-derived DGAT enzyme; type: biochemical; conditions: rat liver microsomal protein
# T1 construct: microsomal protein isolated from rat; from tissue; host or cells: rat liver microsomes
# T1 sequence (Q9ERM3 1-498): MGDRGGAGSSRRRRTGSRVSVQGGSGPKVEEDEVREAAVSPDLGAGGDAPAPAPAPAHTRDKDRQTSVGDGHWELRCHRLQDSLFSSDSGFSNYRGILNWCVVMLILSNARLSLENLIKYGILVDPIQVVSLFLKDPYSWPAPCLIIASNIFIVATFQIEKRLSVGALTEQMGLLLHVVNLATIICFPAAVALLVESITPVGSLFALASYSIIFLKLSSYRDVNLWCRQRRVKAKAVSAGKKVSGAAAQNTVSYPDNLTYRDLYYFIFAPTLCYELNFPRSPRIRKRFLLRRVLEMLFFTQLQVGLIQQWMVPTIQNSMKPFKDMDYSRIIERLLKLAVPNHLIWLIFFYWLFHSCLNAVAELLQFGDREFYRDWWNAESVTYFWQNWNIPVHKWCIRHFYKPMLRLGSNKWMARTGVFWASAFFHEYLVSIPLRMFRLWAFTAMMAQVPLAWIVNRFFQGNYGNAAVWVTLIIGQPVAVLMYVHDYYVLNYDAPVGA
# Excerpt: (§1) To investigate inhibitory effect of the compounds of Examples 1-33 against DGAT enzyme activity, DGAT enzyme inhibition and DGAT2 selectivity were investigated using zymogen including:
# 3) rat liver-derived DGAT enzyme.
# (§2) To be specific, for the purpose of measuring human-derived DGAT enzyme inhibitory activity, using the zymogen, including enzymes derived from insect cell overexpressing human DGAT1 and DGAT2 (‘sf9’), microsomal protein isolated from human duodenal adenocarcinoma (‘Hutu 80’), and microsomal protein isolated from rat, and according to Coleman et al., (Methods Enzymol., 98-103, 1992), and substrate including 1,2-diacylglycerol(Sigma, D0138) and [^14C]palmitoyl-CoA (Amersham, CFA583), the amount of radiation of [^14C]triacylglycerol produced after enzymatic reaction was measured.
# (§3) To be more specific, to the reaction solution containing 175 mM Tris-HCl (pH 8.0), 20 μl bovine serum albumin (10 mg/ml), 100 mM magnesium chloride, 30 μM [^14C]palmitoyl CoA (0.02 μCi, Amersham) and 200 μM 1,2-dioleoylglycerol, reagent dissolved in dimethylsulfoxide (10.0 μl) was added. After introducing 100 to 200 μg isolated microsomal protein and allowing the same to react at 25° C. for 10 min, the reaction was stopped by adding 1.5 ml stop solution (2-propanol:heptane:water=80:20:2, v:v:v). To isolate the product of the reaction (i.e., [^14C]triacylglycerol), 1 ml heptane and 0.5 ml distilled water were added and then decocted. After taking 1 ml supernatant, 2 ml alkaline ethanol solution (ethanol:0.5 N sodium hydroxide:water=50:10:40, v:v:v) were added and then decocted. After taking 0.65 ml supernatant from the decoction, the amount of radiation was measured with liquid scintillation counter (LSC). The DGAT inhibitory activity was calculated with Mathematical Expression 1 below:
# (§4) T denotes cpm of experimental group in which the enzymatic reaction solution was treated with the sample,
# (§5) C denotes cpm of control group in which the enzymatic reaction solution was not treated with the sample, and
# (§6) B denotes cpm of control group treated with the sample without zymogen.
# [2] = target: T2, human DGAT2 (Homo sapiens, UniProt Q96PD7); assay: DGAT enzyme inhibition test, hDGAT2 enzyme from sf9 insect cells (DGAT2 selectivity); type: biochemical
# T2 construct: made in house; host or cells: sf9 insect cells
# T2 sequence (Q96PD7 1-388): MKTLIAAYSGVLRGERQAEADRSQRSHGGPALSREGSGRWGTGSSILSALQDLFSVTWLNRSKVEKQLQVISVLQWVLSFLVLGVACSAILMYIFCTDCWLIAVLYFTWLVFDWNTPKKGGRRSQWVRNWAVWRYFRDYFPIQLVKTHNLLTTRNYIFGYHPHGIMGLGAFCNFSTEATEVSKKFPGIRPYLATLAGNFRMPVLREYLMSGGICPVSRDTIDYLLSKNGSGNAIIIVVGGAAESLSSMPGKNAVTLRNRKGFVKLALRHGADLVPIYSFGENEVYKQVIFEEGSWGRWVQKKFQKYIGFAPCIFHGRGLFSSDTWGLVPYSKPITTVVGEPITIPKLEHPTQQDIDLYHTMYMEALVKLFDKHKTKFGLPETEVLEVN
# Excerpt: as §1
# 1) hDGAT1 and hDGAT2 enzymes, derived from insect cell overexpressing human DGAT1 and DGAT2 (‘sf9’), respectively,
# as §2, §3, §4, §5, §6
# [3] = 10 μM, enzyme from sf9 cells overexpressing hDGAT2, read-out: hDGAT-2 (sf9) inhibition rate(%)at 10 μM
# [4] = concentration of 10 μM, read-out: hDGAT2 inhibition
Compound,IC50 [1],"inhibition at 10 µM [2, 3]","inhibition at 10 µM [2, 4]"
"CC(C)N(NC(=O)c1ccc(Br)cc1)C(=O)/C=C/c1cn(C(=O)OC(C)(C)C)c2ccccc12 [Example 13, (E)-tert-butyl 3-(3-(2-(4-bromobenzoyl)-1-isopropylhydrazinyl)-3-oxoprop-1-enyl)-1H-indole-1-carboxylate]",9.1 µM,2.3%,< 11%
"CC(C)(C)OC(=O)n1cc(/C=C/C(=O)NNC(=O)c2ccccc2)c2ccccc21 [Example 16, (E)-tert-butyl 3-(3-(2-benzoylhydrazinyl)-3-oxoprop-1-enyl)-1H-indole-1-carboxylate]",26.3 µM,3.7%,
"CC(C)(C)OC(=O)n1cc(/C=C/C(=O)NNS(=O)(=O)c2ccccc2)c2ccccc21 [Example 17, (E)-tert-butyl 3-(3-oxo-3-(2-(phenylsulfonyl)hydrazinyl)prop-1-enyl)-1H-indole-1-carboxylate]",83.6 µM,< 0%,
"COC(=O)COc1cccc(C(=O)NN(C(=O)/C=C/c2cn(C(=O)OC(C)(C)C)c3ccccc23)C(C)C)c1 [Example 18, (E)-tert-butyl 3-(3-(1-isopropyl-2-(3-(2-methoxy-2-oxoethoxy)benzoyl)hydrazinyl)-3-oxoprop-1-enyl)-1H-indole-1-carboxylate]",20.3 µM,< 0%,
"CC(C)N(NC(=O)c1cccc(OCC(=O)O)c1)C(=O)/C=C/c1cn(C(=O)OC(C)(C)C)c2ccccc12 [Example 19, (E)-2-(3-(2-(3-(1-(tert-butoxycarbonyl)-1H-indol-3-yl)acryloyl)-2-isopropylhydrazinecarbonyl)phenoxy)acetic acid]",45.5 µM,< 0%,
"CC(C)N(NC(=O)c1cccc(OCC(N)=O)c1)C(=O)/C=C/c1cn(C(=O)OC(C)(C)C)c2ccccc12 [Example 20, (E)-tert-butyl 3-(3-(2-(3-(2-amino-2-oxoethoxy)benzoyl)-1-isopropylhydrazinyl)-3-oxoprop-1-enyl)-1H-indole-1-carboxylate]",> 100 µM,< 0%,
"CC(C)N(NC(=O)c1ccccc1)C(=O)CCc1cn(Cc2ccccc2)c2ccccc12 [Example 21, N′-(3-(1-benzyl-1H-indol-3-yl)propanoyl)-N′-isopropylbenzohydrazide]",29.1 µM,1.3%,
"CC(C)N(NC(=O)c1ccccc1)C(=O)/C=C/c1c[nH]c2ccccc12 [Example 22, (E)-N′-(3-(1H-indol-3-yl)acryloyl)-N′-isopropylbenzohydrazide]",33 µM,< 0%,
"CC(C)N(NC(=O)c1ccccc1)C(=O)CCc1c[nH]c2ccccc12 [Example 23, N′-(3-(1H-indol-3-yl)propanoyl)-N′-isopropylbenzohydrazide]",31.4 µM,< 0%,
CC(C)N(NC(=O)c1ccccc1)C(=O)/C=C/c1cn(C)c2ccccc12 [Example 25],9.3 µM,< 0%,
"CC(=O)n1cc(/C=C/C(=O)N(NC(=O)c2ccccc2)C(C)C)c2ccccc21 [Example 30, (E)-N′-(3-(1-acetyl-1H-indol-3-yl)acryloyl)-N′-isopropylbenzohydrazide]",22.5 µM,< 0%,

# Stronger by IC50 [1], values ahead:
IC50 [1],"inhibition at 10 µM [2, 3]","inhibition at 10 µM [2, 4]",Compound
8.6 µM,< 0%,,"CC(C)N(NC(=O)c1ccccc1)C(=O)CCc1cn(C(=O)OC(C)(C)C)c2ccccc12 [Example 24, tert-butyl 3-(3-(2-benzoyl-1-isopropylhydrazinyl)-3-oxopropyl)-1H-indole-1-carboxylate]"
3.4 µM,4.4%,< 11%,"CC(C)N(NC(=O)c1ccccc1)C(=O)/C=C/c1cn(C(=O)C(C)(C)C)c2ccccc12 [Example 31, (E)-N′-isopropyl-N′-(3-(1-pivaloyl-1H-indol-3-yl)acryloyl)benzohydrazide]"
2.9 µM,< 0%,< 11%,"CC(C)N(NC(=O)c1ccccc1)C(=O)/C=C/c1cn(CC2CC2)c2ccccc12 [Example 28, (E)-N′-(3-(1-(cyclopropylmethyl)-1H-indol-3-yl)acryloyl)-N′-isopropylbenzohydrazide]"
2.8 µM,< 0%,< 11%,"CC(C)N(NC(=O)c1ccc(Cl)cc1)C(=O)/C=C/c1cn(C(=O)OC(C)(C)C)c2ccccc12 [Example 14, (E)-tert-butyl 3-(3-(2-(4-chlorobenzoyl)-1-isopropylhydrazinyl)-3-oxoprop-1-enyl)-1H-indole-1-carboxylate]"
2.4 µM,5%,< 11%,"CC(C)N(NC(=O)c1ccccc1)C(=O)/C=C/c1cn(Cc2ccccc2)c2ccccc12 [Example 26, (E)-N′-(3-(1-benzyl-1H-indol-3-yl)acryloyl)-N′-isopropylbenzohydrazide]"
1.9 µM,< 0%,< 11%,"CC(C)N(NC(=O)c1ccccc1)C(=O)/C=C/c1cn(C2CC2)c2ccccc12 [Example 29, (E)-N′-(3-(1-cyclopropyl-1H-indol-3-yl)acryloyl)-N′-isopropylbenzohydrazide]"
1.4 µM,< 0%,< 11%,"CC(C)N(NC(=O)c1ccccc1)C(=O)/C=C/c1cn(C(=O)CC(C)(C)C)c2ccccc12 [Example 33, (E)-N′-(3-(1-(3,3-dimethylbutanoyl)-1H-indol-3-yl)acryloyl)-N′-isopropylbenzohydrazide]"
0.7 µM,11%,< 11%,"CC(C)N(NC(=O)c1ccccc1)C(=O)/C=C/c1cn(C(=O)c2ccccc2)c2ccccc12 [Example 32, (E)-N′-(3-(1-benzoyl-1H-indol-3-yl)acryloyl)-N′-isopropylbenzohydrazide]"
0.4 µM,< 0%,< 11%,"CC(C)N(NC(=O)c1cccc(F)c1)C(=O)/C=C/c1cn(C(=O)OC(C)(C)C)c2ccccc12 [Example 15, (E)-tert-butyl 3-(3-(2-(3-fluorobenzoyl)-1-isopropylhydrazinyl)-3-oxoprop-1-enyl)-1H-indole-1-carboxylate]"
